One data set has as its system MEG-01 xenografts. The experiment in a line: Blood counts in MEG-01 xenograft mice. The data set is classed as in vivo. As to the method: At the end of the trial, tail-bleeding times assay was performed and blood was collected for blood counts from live and anesthetized mice. After these experiments were completed mice were sacrificed and tumors and organs were collected. Samples were fixed in formalin for further processing.
Mice blood collection and blood counts. Blood counts are dependent upon the method and time of blood collection. Whole blood was collected from the retro-orbital sinus (under the eye) of anesthesiated mice (both DMSO treated and DMAT treated batch). EDTA and prostaglandin E1 (PGE1) were used at collection to prevent clotting during blood collection. 500 μl mice whole blood with 100 μl anticoagulant were used for counting (a 1:5 dilution). A hematological analyzer was used for this. Samples were compared (gated) with normal mice (C57BL strain).

Data set [1] relates to SW-480 cells. Nature of the data set: Proliferation assay in vitro, SW-480. The settings on record: four days. The data set is classed as cell-based, human. An excerpt: Viability (proliferation) assay, Trypan blue exclusion. Cells were counted using a Neubauer hemacytometer.
The test system of another data set is MEG-01 cells. Nature of the data set: Annexin V-FITC and PI apoptosis assay, MEG-01. The data set is classed as cell-based, human. As to the method:
Flow cytometric analysis. Cells were analyzed using a FACSCalibur flow cytofluorometer (Becton-Dickinson), with CellQuestPro ver. 3.3 software. The data was further analyzed with FlowJo ver. 6.2, and WinMDI 2.8 software. Proper gating was performed to characterize each cell population (MEG-01 cells and platelets). The population that corresponds to platelets (small, granulated particles), is PI negative because thrombocytes are anucleated cells (only the viable cells were considered) and were distinguished by their capacity to become activated, undergoing shape change in response to agonist and to show phosphatidylserine (PS) exposure when activated. Platelets were further separated from the megakaryocytic cells, by differential centrifugation, considering the size difference between these cell populations (1-5 μm for platelets and 35-150 μm for megakaryocytic cell line MEG-01) and analyzed separately. Voltage and channels settings were adjusted accordingly. Analyzed values were obtained with WinMDI ver. 2.8.
(§1) Apoptosis Assays using Flow Cytometry with Annexin V-FITC and propidium iodide (PI). For induction of typical apoptosis, cells were grown in the presence of 1 μM staurosporine (Sigma-Aldrich) for 6 hours. The staurosporine treated cells were stained as follows: control 1 with PI, control 2 with Annexin V-FITC and control 3 both PI and Annexin V-FITC in order to have the brightest controls for compensation and proper collection of the flow cytometry data. Cell necrosis was induced by heat shock (65° C. for 30 minutes). The stained control, both PI and Annexin V-FITC labeled, was then used as the reference in establishing the level of apoptosis induced by the treatments. Data was collected on logarithmic modes, two-colors. Annexin V-FITC corresponds to FL1 H channel, and PI to FL3H or FL2H channels.
(§2) Annexin V-FITC and PI apoptosis assay staining protocol. Apoptosis Annexin V-FITC and PI kit from BD Biosciences, CA, USA, was used. 10^5-10^6 cells were stained with 50 μg/ml PI and with 0.5 μg/ml FITC-labeled Annexin V using the staining protocol provided by the supplier. Samples were then analyzed immediately by flow cytometry.

Another data set has as its system tumors of ACHN cells. The experiment in a line: Murine xenograft of ACHN cells, tumor volume. The data set is classed as in vivo, mice. Particulars: DMAT at effective dosage levels (in DMSO) per animal per day, 59 days. As to the method: FIG. 94 illustrates the effect of administration of DMAT as compared to a control over a period of 59 days. FIG. 94 is a graph of a murine xenograft treated with DMAT, compared to a control. Mice with tumors of ACHN cells were treated with DMAT at effective dosage levels (in DMSO) per animal per day. The daily animal weight was averaged at 32.5 g at the start of treatment. Tumors were measured daily and tumor volumes were calculated based upon a prolate spheroid model. FIG. 94 illustrates the significant benefits of treatment with DMAT (circles) as compared to the control (squares). […] The differences in tumor volume between control cells and those treated with DMAT, as described herein, are striking.

For data set [2], the system named is SW-480 cells. Nature of the data set: Annexin V apoptosis/necrosis assay, SW-480. The data set is classed as cell-based, human. As to the method: as §1, §2
Data set [3] can be described thus: In vivo toxicity study for DMAT. Further details: species or system mouse. As to the method:
In vivo toxicity study for DMAT. A male nude mouse (without tumors) was treated with DMAT to determine a toxicity level. A saturated solution of DMAT in DMSO was inoculated daily in the neck subcutaneously (100 μl of 100 mg/ml DMAT in DMSO). Therefore this animal received 10 mg DMAT per day. After 2 weeks this animal was sacrificed and organs were collected for further analysis.

Setting [4] is: 200 mg/kg per day DMAT (in DMSO), subcutaneous in the neck, 2 weeks.

“Also recorded” adds a separate entry of the source.

As for `CN(C)c1nc2c(Br)c(Br)c(Br)c(Br)c2[nH]1` [DMAT, 2-dimethylamino-4,5,6,7-tetrabromo-1H-benzimidazole], the platelet counts entry in the data set on MEG-01 xenografts (DMAT 50 μl/day of 125 mg, compared to a control) was “increase in platelet counts”. For the same compound, the “percentage of abnormal cells in blood counts” value with MEG-01 xenografts (DMAT treated vs DMSO control) was “the control has higher percentages of abnormal cells”. In addition, in the data set with SW-480 cells [1] (10 μM DMAT), the cell counts result is “cell counts between the control and the SW-480 cells treated with 20 μM”. For the same compound, the “cell counts / proliferation” value in the data set on SW-480 cells [1] (20 μM DMAT) is “lowest cell counts; also recorded: proliferation arrest”. Further, the “cytotoxicity (necrosis) in MEG-01 cells” value with MEG-01 cells is “without being cytotoxic”. In addition, the “level of necrotic cells” value with MEG-01 cells (20 μM DMAT, 24 hours, control untreated 0.87%) was determined as 0.39%; in the data set with SW-480 cells [2] (10 μM DMAT, 24 hours, control 3.5%) it was 1.9%; with SW-480 cells [2] (20 μM DMAT), 2.4%. Also, the “level of apoptotic cells” value in the data set with MEG-01 cells (20 μM DMAT, 24 hours, control untreated 8.7%) worked out at 19%; in the data set with SW-480 cells [2] (10 μM DMAT, 24 hours, control 1.9%), 17.5%; with SW-480 cells [2] (20 μM DMAT), 27.6%. Further, in the data set on MEG-01 cells (24 to 96 hours), the “dose and time dependence of induced apoptosis and phenotype change” value is “dose and time dependent”. Further, the tumor volume entry with tumors of ACHN cells is “proliferation arrest in vivo for large tumors and tumor ablation in small tumors”. Moreover, the “histological analyses of all organs vs control animal (not injected)” value in data set [3] (10 mg/day/animal for 2 weeks) is given as “did not show any difference”. The behavior result in data set [3] (setting [4]) is recorded as “generally normal behavior”. Moreover, the liver size entry in data set [3] (setting [4]) is listed as “appeared to have increased in size”. Besides, in data set [3] (200 mg/kg per day DMAT (in DMSO), subcutaneous in the neck, 2 weeks, male athymic nude mouse), the injection site entry was “irritated and swollen like a cyst”.

(Values after patent US20090054507A1, “CONTROL OF MALIGNANT CELLS BY KINASE INHIBITION” (CLEVELAND STATE UNIVERSITY, priority 2006, published 2009).)
